Measurements: patent US12133846B2, “Electrophilic androgen receptor (AR) antagonists for AR downregulation and ferroptosis induction in cancer cells” (priority 2019, dated 2024)

Tests used:
[1] = target: T1, FL AR and AR-V7 (Homo sapiens, UniProt P10275); assay: Western blotting of FL AR and AR-V7 in VCaP cells; type: cell-based; conditions: full media, 16 h, 2-63, 12b 5 and 15 μM, Enz 10 μM, SAHA 1 μM
T1 construct: Whole cell lysates were subjected to Western blotting and probed with the indicated antibodies; endogenous in cells; host or cells: VCaP
T1 sequence (P10275 1-920): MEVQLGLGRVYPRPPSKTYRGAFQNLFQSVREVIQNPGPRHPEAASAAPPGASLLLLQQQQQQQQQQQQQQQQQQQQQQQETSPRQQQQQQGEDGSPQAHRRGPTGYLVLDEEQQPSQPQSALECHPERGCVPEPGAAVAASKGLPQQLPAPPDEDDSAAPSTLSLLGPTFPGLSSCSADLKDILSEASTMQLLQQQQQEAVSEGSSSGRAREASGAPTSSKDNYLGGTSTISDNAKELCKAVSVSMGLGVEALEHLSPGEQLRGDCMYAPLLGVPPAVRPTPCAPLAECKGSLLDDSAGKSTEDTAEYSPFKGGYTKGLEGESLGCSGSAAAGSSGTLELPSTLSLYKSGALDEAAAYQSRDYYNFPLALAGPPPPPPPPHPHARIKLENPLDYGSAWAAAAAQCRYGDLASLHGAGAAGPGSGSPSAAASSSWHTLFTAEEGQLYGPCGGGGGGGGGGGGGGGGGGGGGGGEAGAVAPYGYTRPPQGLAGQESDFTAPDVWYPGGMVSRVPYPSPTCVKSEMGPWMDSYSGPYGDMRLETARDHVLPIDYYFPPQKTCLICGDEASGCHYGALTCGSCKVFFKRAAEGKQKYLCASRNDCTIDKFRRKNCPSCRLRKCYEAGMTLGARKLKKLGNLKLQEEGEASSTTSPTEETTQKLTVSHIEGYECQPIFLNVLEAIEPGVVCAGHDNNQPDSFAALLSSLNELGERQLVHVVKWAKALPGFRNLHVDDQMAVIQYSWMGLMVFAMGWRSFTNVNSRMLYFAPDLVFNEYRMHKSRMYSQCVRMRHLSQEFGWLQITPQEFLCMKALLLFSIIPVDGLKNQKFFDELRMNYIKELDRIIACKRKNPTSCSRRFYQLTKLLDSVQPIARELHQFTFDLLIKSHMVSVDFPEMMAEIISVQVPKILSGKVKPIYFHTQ
Experimental: (§1) Western Blotting. […] Proteins in cell lysates (40 μg) were separated using electrophoresis on SDS-PAGE and transferred onto PVDF (polyvinylidenedifluoride) membranes. Membranes were blocked in 5% fat-free milk followed by incubation with primary antibodies overnight at 4° C., and the secondary horseradish peroxidase-conjugated anti-rabbit or anti-mouse antibodies. The blots were developed in the Enhanced Chemiluminescence mixture and detected by ImageQuant™ LAS 4000 imaging system (GE). Density of protein bonds were calculated and analyzed by using imageJ software downloaded from the National Institute of Health website.

[2] = target: T2, FL AR and AR-V7 (Homo sapiens, UniProt P10275); assay: Western blotting of FL AR and AR-V7 in VCaP cells; type: cell-based; conditions: full media, 16 h, 2-63, 12b 5 and 15 μM, Enz 10 μM
T2 construct: Whole cell lysates were subjected to Western blotting and probed with the indicated antibodies; endogenous in cells; host or cells: VCaP
T2 sequence (P10275 1-644 isoform P10275-3): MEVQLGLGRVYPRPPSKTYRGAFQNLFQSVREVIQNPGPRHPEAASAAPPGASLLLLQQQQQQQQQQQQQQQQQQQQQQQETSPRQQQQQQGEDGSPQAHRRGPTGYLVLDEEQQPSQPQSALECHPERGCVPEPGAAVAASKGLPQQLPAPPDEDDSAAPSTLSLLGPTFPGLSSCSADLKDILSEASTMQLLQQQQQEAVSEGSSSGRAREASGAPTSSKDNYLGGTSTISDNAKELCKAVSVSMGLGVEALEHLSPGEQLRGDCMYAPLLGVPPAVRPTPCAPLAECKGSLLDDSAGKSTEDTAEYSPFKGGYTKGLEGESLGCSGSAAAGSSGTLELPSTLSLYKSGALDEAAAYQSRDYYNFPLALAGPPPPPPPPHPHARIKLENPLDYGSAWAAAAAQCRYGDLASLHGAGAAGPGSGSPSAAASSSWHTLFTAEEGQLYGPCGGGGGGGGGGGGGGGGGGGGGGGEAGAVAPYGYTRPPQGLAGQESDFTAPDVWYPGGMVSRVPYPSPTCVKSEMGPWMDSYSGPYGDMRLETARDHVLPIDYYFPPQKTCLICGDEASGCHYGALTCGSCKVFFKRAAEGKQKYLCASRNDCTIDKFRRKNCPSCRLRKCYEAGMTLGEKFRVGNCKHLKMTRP
Experimental: as §1

[3] = tested on: 22Rv1 cells; assay: Colony formation assay, 22Rv1 cells; type: cell-based; conditions: 2-63 1 μM plus BSO 5 μM, 24 h, then drug-free medium 11 days
Experimental: Colony formation assay. Cells (22Rv1 or C4-2) were seeded in six-well plates (1,000/well) and cultured overnight. Cells were then treated with 2-63 (1 μM in 22Rv1; 2.5 μM in C4-2), BSO (5 μM) alone or in combination for 24 h. Cells were washed and cultured in a drug-free medium (22Rv1, 11 days; C4-2, 8 days). On the last day, the medium was removed, cells were washed with PBS and fixed with methanol. The colonies were stained with crystal violet solution for 3 h at room temperature and air-dried.

[4] = tested on: 22Rv1 cells; assay: BSO pretreatment plus drug, MTT viability, 22Rv1 cells
Experimental: Cell viability was then assessed using an MTT assay.
PCa cells (6×10^3 cells/well) were seeded into 96-well plates overnight and then treated with indicated compounds at indicated concentrations and time durations. The MTT (3-(4, 5-Dimethylthiazol-2-yl)-2,5-diphenyltetrazolium bromide) assay was performed according to the standard protocol. Briefly, MTT (0.5 mg/mL) was incubated with cells at 37° C. for 3 hours. Supernatant was removed, followed by the addition of dimethyl DMSO (100 μl). After incubation for 30 minutes at 37° C., absorbance was read at 570 nm on a microplate reader.

## CC(=O)N[C@H](CSC(=S)NCCCCCCc1ccc(N2C(=S)N(c3ccc(C#N)c(C(F)(F)F)c3)C(=O)C2(C)C)cn1)C(=O)O [2-63, N-acetyl-S-((6-(5-(3-(4-cyano-3-(trifluoromethyl)phenyl)-5,5-dimethyl-4-oxo-2-thioxoimidazolidin-1-yl)pyridine-2-yl)hexyl)carbamothioyl)-D-cysteine]
[1]
  FL AR expression: dose-dependently decreased
[2]
  AR-V7 expression: dose-dependently decreased
[3]
  colony formation of 22Rv1 cells: very efficiently suppressed colony formation
[4]; BSO 2.5-10 μM 16 h pretreatment, then 2-63 1-10 μM 24 h, synergism = index <0.8
  combinatorial effect with BSO (interaction index), 22Rv1: synergistically reduced viability
[4]; Homo sapiens, 22Rv1, 24 h, read-out: viability reduction, 22Rv1 cells
  cytotoxicity at 5 µM: 65%
